Test: gradient 5% acetonitrile 3 min, to 50% in 2 min, to 85% in 15 min, held 3 min, 100 µL/min
Details: column: Zorbax Extend-C18 2.1 x 50 mm; eluents: water / acetonitrile, 0.1% formic acid
In short: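 Retention times come from adduct peaks that were picked computationally and then checked by hand. The standards, pure and pooled in mixtures of ~100 molecules, were run on a Zorbax Extend-C18 column (2.1 × 50 mm, 1.8 μm) at 100 μL/min with water and acetonitrile, each with 0.1% formic acid. Detection was by quadrupole time-of-flight mass spectrometry in positive and negative ionization mode, with a dead volume of 40 μL and a dwell volume of 900 μL.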

SMILES | RP-LC retention time [s]
O=C(NCc1cccnc1-c1ccc(F)cc1)c1cccs1 | 894
CCS(=O)(=O)N1CC(=O)N(c2ccc(Cl)cc2C)C(C)(C(=O)NC2CCCCC2)C1 (stereo unspecified) | 946
Cc1[nH]c(C(=O)N2CCC(CC(=O)N3CCN(c4ccccc4)CC3)CC2)c(C)c1C(=O)OC(C)C | 939
O=S(=O)(c1ccc(F)cc1)N1CC(F)(F)C[C@H]1CN1CCc2ccccc2C1 | 738
O=C(CCc1c(-c2ccccc2)nc2ccccn12)Nc1cccc(F)c1 | 692
Cc1c(-c2ccnc(N3CCN(Cc4ccccc4)CC3)n2)cnc2nc(-c3ccccc3)nn12 | 713
O=C(Cc1cccc(F)c1)NC1CCN(c2ccccc2)C1=O (stereo unspecified) | 770
O=C(NCc1ccc(Cl)cc1)C1CCCN(c2nn3c(=O)c4c(nc3s2)CCCC4)C1 (stereo unspecified) | 808
CCOC(=O)NCc1nc2ccccc2n1Cc1c(F)cccc1Cl | 613
COc1cc(OC)cc(C(=O)N2CCC3(C2)C(=O)Nc2ccc(OC)cc23)c1 (stereo unspecified) | 710
CC(C)c1noc(-c2cc(=O)n(CC(=O)NCc3ccccc3)c3ccccc23)n1 | 940
Cc1cccc(-c2noc(C3CCCN3C(=O)Nc3ccc(F)cc3)n2)c1 (stereo unspecified) | 1010
CC(=O)NCc1ccc(-c2noc(-c3cccc(Br)c3)n2)s1 | 922
CCc1nnc(-c2cc(C)n(CC(=O)Nc3ccc(Cl)cc3F)c2C)o1 | 866
Cc1cccc(C)c1NC(=O)N1CCC(OC2CCN(Cc3ccccc3)CC2)CC1 | 661
COc1ccc(C(C)NC(=O)C2CC(=O)N(c3ccc4c(c3)CCN4C(C)=O)C2)cc1 (stereo unspecified) | 688
COC(=O)c1ccc(NS(=O)(=O)c2cc3n(c2)CCN(C)C3=O)cc1 | 682
Cc1ccc(S(=O)(=O)N2CC(=O)N(c3ccc(F)cc3)C(C)(C(=O)NCc3ccccc3)C2)cc1 (stereo unspecified) | 968
Cn1c(=O)n(C)c2cc(S(=O)(=O)c3ccc(F)cc3)c(NC(=O)c3ccc(F)cc3)cc21 | 899
COC[C@@H]1CN(Cc2ccc(OC)cc2OC)C[C@H]1c1ccncc1 | 590
Cc1cc2nc(C)c(=O)n(CC(=O)NCCN(C)C)c2cc1C | 583
CCn1c(=O)c2ccccc2n(Cc2nc(-c3ccccc3Cl)no2)c1=O | 1000

SMILES | RP-LC retention time [s]
CC(C)c1noc(C2CCCN(S(=O)(=O)c3cccs3)CCC(=O)NCC2)n1 (stereo unspecified) | 787
Cc1cccc(S(=O)(=O)N2CC(F)(F)C[C@H]2CN2CCc3ccccc3C2)c1 | 773
COc1ccc(CNC(=O)N(Cc2ccsc2)CC(F)(F)F)cc1OC | 812
CCOC(=O)C1CCN(C(=O)C2CCN(S(=O)(=O)c3ccc4c(c3)CCCC(=O)N4)CC2)CC1 | 713
O=C(NCc1csc(-c2cccs2)n1)C1CCN(C(=O)CCc2ccccc2)CC1 | 805
CC1Cc2ccccc2N1C(=O)Cc1cc(-c2ccc(F)cc2)on1 (stereo unspecified) | 1000
CCCn1c(-c2cccc(C(=O)NC3CCCC3)c2)nc2cccnc21 | 772
CCCOc1nc2ccccc2nc1N1CCCC(C(=O)N2CCN(c3ccccc3F)CC2)C1 (stereo unspecified) | 1380
C=CCN1C(=O)COc2ccc(-c3nc(NC(=O)C(C)C)sc3C)cc21 | 922
Cc1ccc(-c2cc(C(=O)NCCN(C)C)n(C)c2)cc1 | 657
CCC(C)NC(=O)NCCC1CCN(S(=O)(=O)c2ccc(C)cc2)CC1 (stereo unspecified) | 861
Oc1c(C(c2ccc(F)cc2)N2CCN(c3cccc(Cl)c3)CC2)sc2ncnn12 (stereo unspecified) | 852
CC(C)Cc1ccc(S(=O)(=O)N2CCC(C(=O)NCc3csc(-c4ccccc4)n3)CC2)cc1 | 1140
CCN1C(=O)c2cccnc2Sc2cc(CNC(=O)C3CCN(C(C)=O)CC3)ccc21 | 638
Cc1ccc(CNC(=O)c2ncn3c2C(=O)N(C2CC2)C(C)(C(=O)NCc2ccc(C)cc2)C3)cc1 (stereo unspecified) | 832
COc1ccc(OC)c(NC(=O)COc2cc(C)nc(N3CCCC3)n2)c1 | 650
O=C(NCc1ccc(F)cc1)N1CCCC1c1nc(-c2ccc(F)cc2F)no1 (stereo unspecified) | 897
O=c1c2cc([N+](=O)[O-])ccc2nc(CN2CCN(c3ccccn3)CC2)n1-c1ccccc1F | 670
Cc1ccc(C)c(NC(=O)Nc2ccc3nncn3c2)c1 | 747
O=C(Nc1ccc(F)c(F)c1)C1CCN(S(=O)(=O)c2ccc(-c3noc(C4CC4)n3)cc2)CC1 | 1050
COc1ccc(S(=O)(=O)N2CCCC(C(=O)NCc3ccccn3)C2)cc1Cl (stereo unspecified) | 838
Cc1cc2[nH]c(C(=O)Nc3ccc(Cl)cc3C)c(CN(C)C)c2s1 | 704

SMILES | RP-LC retention time [s]
COc1ccc(CN2C(=O)C3(CCOCC3)CC2c2nnnn2C(C)(C)C)cc1 (stereo unspecified) | 760
Cc1cnc(CC2CCN(C(=O)Nc3ccc4c(c3)OCCO4)C2)n1C1CC1 (stereo unspecified) | 612
COc1cc(OC)cc(-c2noc(-c3nn(-c4cccc(F)c4)ccc3=O)n2)c1 | 881
O=C(N[C@@H]1CN(c2ncccn2)C[C@H]1CO)c1ccc(Cl)cc1 | 628
Cc1cnc(C2CCOCC2)n1C1CCCN(S(=O)(=O)Cc2ccccc2)C1 (stereo unspecified) | 646
COC(=O)c1ccc(COc2cc(O)c3c(=O)cc(-c4ccccc4)oc3c2)cc1 | 1290
Cn1cc(CC(=O)NCc2ccccc2Cl)c2cccnc21 | 706
CCOC(=O)c1noc2nc(C)nc(N3CCc4ccccc4C3)c12 | 1120
O=S(=O)(NCC(c1cccnc1)c1c[nH]c2ccccc12)c1ccc2c(c1)CCCC2 (stereo unspecified) | 790
CC(C)N1C(=O)C(C)N(C(=O)NCCN(C)C)c2cccnc21 (stereo unspecified) | 565
CCCCCn1c(=O)c2ccccc2n(Cc2nc(-c3ccc(F)c(Cl)c3)no2)c1=O | 1290
CCOc1ccc(NC(=O)c2cnc(-c3ccc(OC)cc3)nc2-c2ccncc2)cc1 | 875
Cc1ccc(N(C)S(=O)(=O)c2cc3n(c2)CCCN(C(C)C)C3=O)cc1 | 865
CCNC(=O)c1cc(C(C)(C)C)[nH]n1 | 647
CCC(=O)Nc1ccc(OCc2cc(C(=O)NC3CCCC3)no2)cc1 | 740
COc1ccccc1N1CCN(C(=O)CC(C)S(=O)(=O)c2ccc3c(c2)CCN3C(C)=O)CC1 (stereo unspecified) | 754
C=CCNc1nc(-c2ccc([N+](=O)[O-])cc2)nc2ccccc12 | 786
Cc1ccc2c(c1)OCC(=O)N2Cc1nc(-c2ccc3c(c2)OCO3)no1 | 1030
O=C(CN1C(=O)C(C(=O)N2CCCCC2)Sc2ccccc21)N1CCN(c2ccccc2F)CC1 (stereo unspecified) | 960
Cc1ccc(Nc2c(-c3ccc(C)cc3)nc3cnccn23)cc1 | 969
CCOc1ccc(-c2nc(C3CC(=O)N(c4ccc(OC)cc4)C3)no2)cc1OCC (stereo unspecified) | 927
O=S(=O)(Cc1ccccc1)N1CCCC(Cc2nncn2CC2CC2)C1 (stereo unspecified) | 631

SMILES | RP-LC retention time [s]
COc1ccc(N2CCN(c3cc(SCC(=O)Nc4ccc(OC)cc4OC)ncn3)CC2)cc1 | 962
COc1cccc(C(=O)Nc2nc(-c3ccc4c(c3)N(C)C(=O)CO4)c(C)s2)c1 | 978
Cc1cc(C)n(CCC(=O)NCC23CCCC=C2NC(=O)CC3)n1 (stereo unspecified) | 621
Cc1ccccc1CC(=O)N1C[C@H](c2nc(-c3ccccc3)no2)[C@@H](C)C1 | 1070
O=C(COc1ccccc1)NCCSc1c[nH]c2ccccc12 | 831
Cc1ccnc(N2CCC(C(=O)NCc3ccco3)CC2)n1 | 624
COc1ccc(CC(=O)N2C[C@@H]3C[C@H]2C[C@@H]3NS(=O)(=O)c2ccccc2)cc1 | 768
Cc1ccc(NC(=O)N2CCC(c3nc(C(=O)N(C)C)c(C)o3)CC2)cc1 | 705
O=C1[C@H]2CN(Cc3c[nH]c4ccccc34)C[C@H]2C(=O)N1CCc1ccccc1 | 692
O=C(CCNc1c(-c2cccc(F)c2)nc2cnccn12)NCc1cccc(Cl)c1 | 772
OC[C@@H]1CN(Cc2ccc3[nH]ccc3c2)C[C@H]1c1ccccn1 | 580
Cc1ccccc1Cc1nc(-c2ccnc(N3CCOCC3)c2)no1 | 908
O=c1[nH]c(-c2cccc(O)c2)nc2sc3c(c12)CCCC3 | 830
COCC1CN(C)CC12CCN(Cc1cccc(OC)n1)CC2 (stereo unspecified) | 567
CN1C(=O)c2cc(C(=O)NCc3cccc(F)c3)nn2CC1(C)C(=O)NC1CCCC1 (stereo unspecified) | 750
COCCN1C(=O)CCC2(C(=O)NCc3ccc(Cl)cc3)CCCC=C12 (stereo unspecified) | 787
COC(=O)c1sccc1NC(=O)Cn1cc(-c2nc(-c3ccc(Cl)cc3)no2)ccc1=O | 1100
Cc1nc2c(sc3nc(-c4ccccc4)ccc32)c(=O)n1CC(=O)NCc1cccs1 | 750
COc1ccc(CN(C(=O)COc2c(C)cccc2C)C2CCS(=O)(=O)C2)cc1OC (stereo unspecified) | 847
Cc1nc(N2CCCC(C(=O)NCCc3ccc(S(N)(=O)=O)cc3)C2)c2c(C)c(C)oc2n1 (stereo unspecified) | 680

— the METLIN SMRT retention time set (Domingo-Almenara et al. 2019)
